Results: ChEMBL document CHEMBL3301461, “MMV Malaria Box thermal shift screening” (2015)

What follows are compounds tested on Leishmania donovani (assay: (§1) MMV: Thermal shift assay for identifying inhibitors). Conditions: not given.

ΔTm [°C] | SMILES
2.2 | Cc1cc(C)cc(Nc2cc(C)nc3nc(C(F)(F)F)nn23)c1
2.5 | CCOc1ccc(C2N(C)c3ccccc3N2C)cc1
4.8 | COc1cc(C(=O)Nc2ccc(-c3nc4ccccc4[nH]3)cc2)cc(OC)c1OC

Second part, the compound before the results:

SMILES | ΔTm [°C]
Cc1ccc(Nc2nc(N)c3ccccc3n2)cc1Cl | 4
CCOc1cc2c(cc1OCC)C(c1cc(C)c(O)c(C)c1)NCC2 (centres undefined) | 3.3
COc1ccc(C(=O)NC(c2ccc(Cl)cc2Cl)c2cc(Cl)c3cccnc3c2O)cc1 (centres undefined) | 2.4
O=C(NC1CCN(Cc2ccccc2)CC1)c1cc(-c2cccnc2)nc2ccc(Cl)cc12 | 2.4

What follows are compounds tested on Plasmodium falciparum (assay: as §1). Conditions: 3D7.

ΔTm [°C] | SMILES
2.2 | COc1ccc(-c2cc(=O)oc3c4c(ccc23)OCN(Cc2ccc(F)cc2)C4)cc1
3.1 | O=c1cc(NC2CCN(CCCc3ccccc3)CC2)c2cc(Cl)ccc2o1
12.7 | Cc1cccc(-n2ncc3c(O)nc(-n4nc(C)cc4NC(=O)c4cc5ccccc5o4)nc32)c1
3.7 | FC(F)(F)c1cccc(Nc2nc(-c3ccccc3)nc3ncccc23)c1
2.3 | CCN(CC)CCNc1ncnc2c1[nH]c1ccc(Cl)cc12
2.7 | COc1cc2cc(C(=O)Nc3ccccc3)c(N)nc2cc1OC
2.4 | CC1CCCCN1CCCNC(=O)c1ccc2c(c1)sc1nc(-c3ccc(F)cc3)cn12 (centres undefined)
2.5 | FC(F)(F)c1cccc(Nc2nc3ccccc3nc2Nc2cccc(C(F)(F)F)c2)c1
2.2 | CC1CCN(Cc2ccc(NC(=O)c3cc4ccc5cccnc5c4[nH]3)cc2)CC1
2 | CCC(O)c1ccc(Br)cc1NC(=O)c1cccc(Cl)c1 (centres undefined)
3 | O=C(NC1CCN(Cc2ccccc2)CC1)c1cc(-c2ccncc2)nc2ccc(Cl)cc12
2.5 | COc1cccc(C(=O)Nc2ccc(-c3nc4ccccc4[nH]3)cc2)c1
2 | COc1cccc(Nc2nc(NCCO)c3ccccc3n2)c1
2.4 | Cc1ccc(NC(=O)Nc2cccc(Cl)c2)cc1F
2.2 | O=C(Nc1ccccc1O)c1ccc(Oc2cccc(C(=O)Nc3ccccc3O)c2)cc1
7.5 | COc1ccc2c(c1)OC(O)(C(F)(F)C(F)(F)F)CC2=O (centres undefined)

Continued, compound first:

SMILES | ΔTm [°C]
CCCN(CCC)CCCNC(=O)c1cc2c(-c3ccc(OC)c(OC)c3)nn(C)c2s1 | 2
CCN(Cc1ccccc1)C1CCN(Cc2cc(Br)ccc2O)CC1 | 12.4
COc1ccc(Nc2nc(NCc3ccccc3)c3ccccc3n2)cc1 | 2.4
COc1cc(OC)cc(C(=O)Nc2ccc(-c3nc4ccccc4[nH]3)cc2)c1 | 2.6
CCN(CC)CCCNc1nc(-c2ccc(Cl)cc2)nc2ccccc12 | 4.1
CCOc1cccc(C(=O)Nc2ccc(-c3nc4ccccc4[nH]3)cc2)c1 | 2.9
O=C(Nc1ccc(Br)cc1)Nc1cccc(Cl)c1 | 3.6
CC(C)(C)C(=O)Nc1ccc(C(=O)Nc2cccc(-c3nc4ccccc4[nH]3)c2)cc1 | 2.3
Cc1sc2ncnc(Sc3nc4ccccc4[nH]3)c2c1C | 2.1
COc1ccc(C=C2SC(=N)N(c3ccccc3OC)C2=O)cc1 | 5.4
CCOC(=O)c1cnc2ccc(Cl)cc2c1NCCCN(C)C | 3.1
